Assay results as given in ChEMBL document CHEMBL2073840, “Inhibitory effects of a cyclosporin derivative, SDZ PSC 833, on transport of doxorubicin and vinblastine via human P-glycoprotein” (Jpn J Cancer Res, 1998).

Molecular target: ATP-dependent translocase ABCB1 (Homo sapiens, UniProt P08183)
Experiment: TP_TRANSPORTER: transepithelial transport (basal to apical) in MDR1-expressing LLC-PK1 cells
Assay type: functional, cell-based
Details: pig

Sequence of ATP-dependent translocase ABCB1 (P08183 whole entry): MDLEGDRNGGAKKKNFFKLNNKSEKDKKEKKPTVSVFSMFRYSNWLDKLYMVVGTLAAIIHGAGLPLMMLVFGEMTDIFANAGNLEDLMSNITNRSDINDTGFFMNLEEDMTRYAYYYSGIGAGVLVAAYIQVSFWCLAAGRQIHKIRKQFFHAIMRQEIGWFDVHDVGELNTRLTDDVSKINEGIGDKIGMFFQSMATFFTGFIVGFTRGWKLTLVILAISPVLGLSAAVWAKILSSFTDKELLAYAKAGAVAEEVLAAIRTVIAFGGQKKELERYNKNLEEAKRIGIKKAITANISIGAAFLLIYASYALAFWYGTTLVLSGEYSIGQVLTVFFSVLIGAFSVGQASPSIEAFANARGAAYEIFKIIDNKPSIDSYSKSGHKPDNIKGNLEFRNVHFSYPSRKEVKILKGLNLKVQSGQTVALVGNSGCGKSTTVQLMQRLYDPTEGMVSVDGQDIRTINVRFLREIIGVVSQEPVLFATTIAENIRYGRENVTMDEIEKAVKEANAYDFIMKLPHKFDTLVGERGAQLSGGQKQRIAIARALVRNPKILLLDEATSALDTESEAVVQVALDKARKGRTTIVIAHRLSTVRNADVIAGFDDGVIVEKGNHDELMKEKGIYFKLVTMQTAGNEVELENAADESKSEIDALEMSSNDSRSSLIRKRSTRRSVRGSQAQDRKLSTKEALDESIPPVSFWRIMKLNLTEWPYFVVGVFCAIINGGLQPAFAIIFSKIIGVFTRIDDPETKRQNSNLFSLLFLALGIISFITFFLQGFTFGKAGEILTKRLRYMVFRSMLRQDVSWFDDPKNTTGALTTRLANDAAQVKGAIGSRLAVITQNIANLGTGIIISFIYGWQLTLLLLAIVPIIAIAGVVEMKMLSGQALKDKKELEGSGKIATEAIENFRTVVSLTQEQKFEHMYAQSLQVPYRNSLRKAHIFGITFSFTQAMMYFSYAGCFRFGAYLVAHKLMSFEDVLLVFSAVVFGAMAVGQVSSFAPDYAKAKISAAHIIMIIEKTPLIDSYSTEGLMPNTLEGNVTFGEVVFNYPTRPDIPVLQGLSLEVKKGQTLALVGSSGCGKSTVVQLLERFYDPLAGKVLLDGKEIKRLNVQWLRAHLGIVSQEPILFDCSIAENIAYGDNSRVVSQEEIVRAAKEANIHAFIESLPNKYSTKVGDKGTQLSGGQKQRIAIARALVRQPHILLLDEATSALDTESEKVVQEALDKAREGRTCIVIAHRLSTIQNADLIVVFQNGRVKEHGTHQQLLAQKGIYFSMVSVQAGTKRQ

| Activity | Structure (SMILES) |
| --- | --- |
| is not a substrate [-] | C/C=C/C[C@@H](C)C(=O)[C@H]1C(=O)N[C@@H](C(C)C)C(=O)N(C)CC(=O)N(C)[C@@H](CC(C)C)C(=O)N[C@@H](C(C)C)C(=O)N(C)[C@@H](CC(C)C)C(=O)N[C@@H](C)C(=O)N[C@H](C)C(=O)N(C)[C@@H](CC(C)C)C(=O)N(C)[C@@H](CC(C)C)C(=O)N(C)[C@@H](C(C)C)C(=O)N1C [VALSPODAR] |
| substrate [+] | COc1cccc2c1C(=O)c1c(O)c3c(c(O)c1C2=O)C[C@@](O)(C(=O)CO)C[C@@H]3O[C@H]1C[C@H](N)[C@H](O)[C@H](C)O1 [DOXORUBICIN] |
